Reference: US20260130850A1, “TRANSDERMAL DELIVERY FORMULATIONS AND METHODS FOR THE MANUFACTURE THEREOF” (LIFEACTIVE, INC., priority 2023, published 2026)

Legend:
[1] = in H2O at ~15-20° C.; Table 2 weak organic acids; cited from earlier work
[2] = Acidic dissociation constants (pKa) of strong and weak organic acids; assay type: physicochemical; settings: water; in H2O at ~15-20° C.; Table 2 weak organic acids; read-out: Median pKa
Description: As used herein, the term “pKa” refers to acid dissociation constant (Ka) of a solution. […] The quantitative behavior of acids and bases in solution can be understood only if their pKa values are known. pKa describes the acidity of a particular molecule. It measures the strength of an acid by how tightly a proton is held by a Bronsted acid. The lower the value of pKa, the stronger the acid and the greater its ability to donate its protons. describe the acidity of a particular molecule Ka denotes the acid dissociation constant. It measures how completely an acid dissociates in an aqueous solution. The larger the value of Ka, the stronger the acid as acid largely dissociates into its ions and has lower pKa value.

| Compound | pKa3 [1] | pKa1 [1] | pKa [2] |
| --- | --- | --- | --- |
| Citric Acid | 6.40 |  |  |
| O=c1[nH]c(=O)c2[nH]c(=O)[nH]c2[nH]1 [Uric Acid] |  | 5.6 | 5.6 |
